For series [1] the following is noted: 40° C. and 75% relative humidity. The source says: Accordingly, there have been attempts to convert bepotastine to an acid salt form having a high optical purity which is resistant to racemization.
A short description of series [2]: Effect of severe storage condition on the optical purity (chiral HPLC). It counts as physicochemical. To be noted: for Change of optical purity during the storage / Optical purity (%) After standing at 60° C. and 75% R.H. for 4 weeks in closed condition / Optical purity (%) After standing at 60° C. and 75% R.H. for 4 weeks in open condition: 60° C., 75% R.H., 4 weeks. The procedure:
For the measurement of the optical purity of the bepotastine, chiral HPLC was conducted under following conditions and the optical purity was calculated using the Equation 1.
• Detector: Ultraviolet ray spectrophotometer (detection wavelength: 225 nm) • Column: YMC Chiral β-CDs (4.6×250 mm, 5 μm) • Mobile phase: methanol/ammonium acetate buffer solution=45/55(v/v, %) • Flow rate: 0.8 ml/min
Optical Purity (%)=Ps/(Ps+Pr)×100 Equation 1
wherein • Ps is the peak area of bepotastine, and • Pr is the peak area of R-enantiomer of bepotastine.
The optical purities of respective bepotastine salts were determined.

A short description of series [3]: Solubility test (saturation solubility). Conditions: for Saturation solubility (mg/ml) pH 1.2 buffer solution: pH 1.2 buffer solution (simulates gastric juice); for Saturation solubility (mg/ml) pH 6.8 buffer solution: pH 6.8 buffer solution (simulates intestinal juice).
A short description of the next series: Moisture absorption test. The class given is physicochemical.
The nature of series [4]: Hygroscopicity of bepotastine salts (Table 1). The class given is physicochemical. The source says: Further, when the crystalline bepotastine metal salt hydrate of formula (I) of the present invention is stored under an extremely high-moisture condition, its moisture content don't increases substantially, thus, it is non-hygroscopic. In contrast, an alkaline metal salt of bepotastine, e.g., lithium salt, sodium salt, potassium salt, magnesium salt or barium salt of bepotastine; a transition metal salt of bepotastine, e.g., zinc salt, aluminum salt, bismuth salt, or iron salt of bepotastine; an organic amine salt of bepotastine, e.g., ammonium salt, ethyl amine salt, dimethyl amine salt, triethylamine salt or N-methyl glucamine salt of bepotastine; and an amino acidic salt of the bepotastine, e.g., arginine salt, lysine salt, or histidine salt of bepotastine, are mostly obtained as non-crystalline forms, and, even when they are obtained as crystalline forms, they are hygroscopic.

Read-outs that look alike come from different tables or passages of the source.

For the molecule `O=C(O)CCCN1CCC(O[C@@H](c2ccc(Cl)cc2)c2ccccn2)CC1.O=S(=O)(O)c1ccccc1` [Benzenesulfonic acid salt, Bepotastine Benzenesulfonic Acid Salt], in series [1], the “Racemization under high moisture condition” value is “slow racemization”. Moreover, in series [2], the “Change of optical purity during the storage” value is listed as “decreases significantly”; the “Optical purity (%) After standing at 60° C. and 75% R.H. for 4 weeks in closed condition” value came out at 97.3%; the “Optical purity (%) After standing at 60° C. and 75% R.H. for 4 weeks in open condition” value was determined as 95.5%; the “Optical purity (%) Before the test” value worked out at 99.9%. In addition, in series [3], the “Saturation solubility (mg/ml) pH 1.2 buffer solution” value is 45.0 mg/ml and the “Saturation solubility (mg/ml) pH 6.8 buffer solution” value is on record as 28.1 mg/ml. Besides, in “Moisture absorption test” (25° C., 75% R.H.), the “Water contents (%) Day 1” value is 0.6%, the “Water contents (%) Day 3” value was found to be 0.6%, the “Water contents (%) Day 7” value worked out at 0.7% and the “Water contents (%) Day 15” value is 0.6%. Moreover, the “Water contents (%) initial” value in “Moisture absorption test” (25° C., 75% R.H.) turned out to be 0.4%. Besides, in the series “Moisture absorption test” (40° C., 75% R.H.), the “Water contents (%) Day 1” value stood at 0.7%, the “Water contents (%) Day 3” value was 0.8%, the “Water contents (%) Day 7” value was found to be 0.8% and the “Water contents (%) Day 15” value amounted to 0.9%. In addition, the “Water contents (%) initial” value in the series “Moisture absorption test” (40° C., 75% R.H.) was determined as 0.4%. Besides, in the series “Moisture absorption test” (40° C., 90% R.H.), the “Water contents (%) Day 1” value was 2.4%, the “Water contents (%) Day 3” value was 2.5%, the “Water contents (%) Day 7” value came out at 2.4% and the “Water contents (%) Day 15” value was 2.5%. The “Water contents (%) initial” value in the series “Moisture absorption test” (40° C., 90% R.H.) is reported as 0.4%.
Regarding `O.O.O=C([O-])CCCN1CCC(O[C@@H](c2ccc(Cl)cc2)c2ccccn2)CC1.O=C([O-])CCCN1CCC(O[C@@H](c2ccc(Cl)cc2)c2ccccn2)CC1.[Ca+2]` [Calcium salt hydrate, Bepotastine Calcium Salt Dihydrate], in series [2], the “Change of optical purity during the storage” value was “remained unchanged”; the “Optical purity (%) After standing at 60° C. and 75% R.H. for 4 weeks in closed condition” value is reported as 99.9%; the “Optical purity (%) After standing at 60° C. and 75% R.H. for 4 weeks in open condition” value is 99.9%; the “Optical purity (%) Before the test” value is reported as 99.9%. The “Solubility compared with bepotastine benzenesulfonic acid salt” value in series [3] (pH 1.2) is listed as “similar”. In addition, in series [3], the “Saturation solubility (mg/ml) pH 1.2 buffer solution” value is reported as 43.2 mg/ml and the “Saturation solubility (mg/ml) pH 6.8 buffer solution” value is given as 61.6 mg/ml. Moreover, the “Solubility relative to bepotastine benzenesulfonic acid salt” value in series [3] (pH 6.8) is on record as “at least 2 times”. The “Hygroscopicity (conclusion of moisture absorption test)” value in “Moisture absorption test” is on record as “essentially non-hygroscopic”. In addition, in the series “Moisture absorption test” (25° C., 75% R.H.), the “Water contents (%) Day 1” value is 4.3%, the “Water contents (%) Day 3” value was 4.3%, the “Water contents (%) Day 7” value was found to be 4.4% and the “Water contents (%) Day 15” value was found to be 4.4%. For the same molecule, in “Moisture absorption test” (25° C., 75% R.H.), the “Water contents (%) initial” value came to 4.3%. Besides, in “Moisture absorption test” (40° C., 75% R.H.), the “Water contents (%) Day 1” value is 4.4%, the “Water contents (%) Day 3” value worked out at 4.6%, the “Water contents (%) Day 7” value stood at 4.5% and the “Water contents (%) Day 15” value is 4.6%. Besides, the “Water contents (%) initial” value in “Moisture absorption test” (40° C., 75% R.H.) came to 4.3%. Moreover, in “Moisture absorption test” (40° C., 90% R.H., 15 days), the “Increment of water content” value is on record as “less than 0.7%”. Besides, in the series “Moisture absorption test” (40° C., 90% R.H.), the “Water contents (%) Day 1” value came out at 4.7%, the “Water contents (%) Day 3” value is 4.9%, the “Water contents (%) Day 7” value is 4.9% and the “Water contents (%) Day 15” value worked out at 5.0%. For the same molecule, in the series “Moisture absorption test” (40° C., 90% R.H.), the “Water contents (%) initial” value came to 4.3%.
`NCCCC[C@H](N)C(=O)O` [L-Lysine]: the Hygroscopicity entry in series [4] is reported as “Hygroscopic”.
Turning to `[Mg]` [Magnesium], the Hygroscopicity result in series [4] is recorded as “Hygroscopic”.
As for `O=C(O)CCCN1CCC(O[C@@H](c2ccc(Cl)cc2)c2ccccn2)CC1` [Potassium], in series [4] (listed as potassium salt of bepotastine), the Hygroscopicity result is recorded as “highly hygroscopic”.
With `O=C(O)CCCN1CCC(O[C@@H](c2ccc(Cl)cc2)c2ccccn2)CC1` [Sodium], the Hygroscopicity entry in series [4] is “Hygroscopic”; in series [4] (listed as sodium salt of bepotastine) it was “highly hygroscopic”.
On to `O=C(O)CCCN1CCC(OC(c2ccc(Cl)cc2)c2ccccn2)CC1.O=C(O)c1ccccc1` (stereo not shown) [bepotastine benzoic acid salt], for which the “Racemization under high moisture condition” value in series [1] is recorded as “slow racemization”.
As to L-Arginine, the Hygroscopicity result in series [4] is “Hygroscopic”.
On to Zinc, for which the Hygroscopicity entry in series [4] is reported as “Hygroscopic”.
